Assay results reported in US12186356B2, “Composition for preventing, alleviating, or treating allergic skin disease comprising as active ingredient extract of gardenia fruit from which pigment is removed” (KOREA INSTITUTE OF ORIENTAL MEDICINE, priority 2018, dated 2025).

Assays:
[1] = tested on: NC/Nga mouse with induced allergic atopic dermatitis (house dust mite antigen); assay: Number of itching in an animal model with allergic atopic dermatitis, extract orally administered; type: in vivo; conditions: oral 100 mg/kg or 200 mg/kg once a day for 14 days; itching counted for 20 minutes; p<0.05 to p<0.001; FIG. 6
Experimental: On the skin of a 8-week old NC/Nga mouse, 100 mg of an ointment (AD Biostir, Japan) which contains components originating from house dust mite as an antigen causing allergic atopy were applied, total 6 times for 21 days with an interval of 3 to 4 days to induce allergic atopic dermatitis. On a day of starting the test, 150μl of 4% SDS were applied to the animal, and, after allowing it to stand for 1 hour, 100 mg of the house dust mite antigen were applied to back and both ears of the animal, respectively. Seven days after inducing allergic atopic dermatitis, the animal was orally administered with 100 mg/kg or 200 mg/kg of the pharmaceutical (extract of gardenia fruit or extract of gardenia fruit from which pigment is removed), once a day for 14 days.
Thereafter, using the animal model with induced allergic dermatitis, number of itching in the ear and back of the animal for 20 minutes was examined once a week to compare the effects obtained according to administration of a pharmaceutical. All the measurement results are expressed in terms of mean and standard deviation (SD), and a difference among test groups was subjected to a statistical analysis using one-way ANOVA. Statistical significance was recognized when p is less than 0.05 (p<0.05).

inflammatory cells = assay: Change in inflammatory cell infiltration in ear and back skin tissues, H&E staining; type: in vivo, NC/Nga mouse; conditions: skin tissues of back and ear; applied on skin; p<0.01 or p<0.001; FIG. 4
Experimental: (§1) On the skin of a 8-week old NC/Nga mouse, 100 mg of an ointment (AD Biostir, Japan) which contains components originating from house dust mite as an antigen causing allergic atopy were applied, total 6 times for 21 days with an interval of 3 to 4 days to induce allergic atopic dermatitis. Seven days after inducing allergic atopic dermatitis, the animal was applied with 1 mg/ml of the pharmaceutical (extract of gardenia fruit (GJE 1%), extract of gardenia fruit from which pigment is removed (GJE-CR 1%), or tacrolimus), once a day for 14 days. Skin tissues of the ear and back of a mouse with induced allergic dermatitis were collected and, by H&E (hematoxylin and eosin) staining and use of an image measuring program (Solution FL ver 9.1), a change in inflammatory cell infiltration was determined. All the measurement results are expressed in terms of mean and standard deviation (SD), and a difference among test groups was subjected to a statistical analysis using one-way ANOVA. Statistical significance was recognized when p is less than 0.05 (p<0.05).

[2] = tested on: NC/Nga mouse with induced allergic atopic dermatitis (house dust mite antigen); assay: Skin state and number of scratching (itching) in an animal model with allergic atopic dermatitis, extract applied on skin; type: in vivo; conditions: applied on skin once a day for 14 days; itching counted for 20 minutes; p<0.001; FIG. 3
Experimental: On the skin of a 8-week old NC/Nga mouse, 100 mg of an ointment (AD Biostir, Japan) which contains components originating from house dust mite as an antigen causing allergic atopy were applied, total 6 times for 21 days with an interval of 3 to 4 days to induce allergic atopic dermatitis. Seven days after inducing allergic atopic dermatitis, the animal was applied with 1 mg/ml of the pharmaceutical (extract of gardenia fruit (GJE 1%), extract of gardenia fruit from which pigment is removed (GJE-CR 1%), or tacrolimus), once a day for 14 days. Thereafter, using the mouse with induced allergic dermatitis, number of itching for 20 minutes and level of skin damage on ear and back of the animal were examined once a week. All the measurement results are expressed in terms of mean and standard deviation (SD), and a difference among test groups was subjected to a statistical analysis using one-way ANOVA. Statistical significance was recognized when p is less than 0.05 (p<0.05).

mast cells = assay: Number of mast cells in ear and back skin tissues, toluidine blue staining; type: in vivo, NC/Nga mouse; conditions: applied on skin, p<0.01 or p<0.001, FIG. 5
Experimental: as §1, with “toluidine blue (TB)” for “H&E (hematoxylin and eosin)”, “number of mast cells” for “a change in inflammatory cell infiltration”

SMILES: C[C@]12C=CC(=O)C=C1CC[C@@H]1[C@@H]2[C@@H](O)C[C@@]2(C)[C@H]1CC[C@]2(O)C(=O)CO [prednisolone]
- number of scratching (number of itching) over days compared to the control group (Control) [1]: decreased with statistical significance

SMILES: C=CC[C@@H]1/C=C(\C)C[C@H](C)C[C@H](OC)[C@H]2O[C@@](O)(C(=O)C(=O)N3CCCC[C@H]3C(=O)O[C@H](/C(C)=C/[C@@H]3CC[C@@H](O)[C@H](OC)C3)[C@H](C)[C@@H](O)CC1=O)[C@H](C)C[C@@H]2OC [tacrolimus]
- inflammatory cells compared to the control group (Control) (inflammatory cells): decreased with statistical significance
- number of scratching (number of itching) compared to the control group (Control) [2]: decreased with statistical significance
- mast cells compared to the control group (Control) (mast cells): decreased with statistical significance
